In patent US7820623B2 (priority 2006, dated 2010):
Bridge positions count the residues as written; N and C are the ends. Square brackets hold non-standard residues; d marks the D form. Ends that are not written are not given here. Peptide text beside a SMILES is read from it. 1Nal = N[C@@H](Cc1cccc2ccccc12)C(=O)O

B1: FcLoop-L2-OsK1-L2: OsK1 inserted into the human IgG1 Fc-loop domain with 2-Gly linkers on either side (protein)
chain: MDKTHTCPPCPAPELLGGPSVFLFPPKPKDTLMISRTPEVTCVVVDVSHEDPEVKFNWYVDGVEVHNAKTKPREEQYNSTYRVVSVLTVLHQDWLNGKEYKCKVSNKALPAPIEKTISKAKGQPREPQVYTLPPSRDELGGGVIINVKCKISRQCLEPCKKAGMRFGKCMNGKCHCTPKGGTKNQVSLTCLVKGFYPSDIAVEWESNGQPENNYKTTPPVLDSDGSFFLYSKLTVDKSRWQQGNVFSCSVMHEALHNHYTQKSLSLSPGK
modifications: Definition of Artificial Sequence: Synthetic protein
B2: FcLoop-L2-ShK-L2: ShK inserted into the human IgG1 Fc-loop domain with 2-Gly linkers (protein)
chain: MDKTHTCPPCPAPELLGGPSVFLFPPKPKDTLMISRTPEVTCVVVDVSHEDPEVKFNWYVDGVEVHNAKTKPREEQYNSTYRVVSVLTVLHQDWLNGKEYKCKVSNKALPAPIEKTISKAKGQPREPQVYTLPPSRDELGGRSCIDTIPKSRCTAFQCKHSMKYRLSFCRKTCGTCGGTKNQVSLTCLVKGFYPSDIAVEWESNGQPENNYKTTPPVLDSDGSFFLYSKLTVDKSRWQQGNVFSCSVMHEALHNHYTQKSLSLSPGK
modifications: Definition of Artificial Sequence: Synthetic protein

Assays:
[1] = system: thapsigargin-induced IL-2 production in human whole blood; settings: for IC50: read-out: Analogue Activity (IC50) WB/IL-2
[2] = system: thapsigargin-induced IFN-g production in human whole blood; format: cell-based; settings: read-out: Analogue Activity (IC50) WB/IFNg

Row | Molecule | IC50 [1] | IC50 [2] | blockade of the whole blood cytokine response, IL-2 and IFNg [1]
1 | CC[C@H](C)[C@@H]1NC(=O)[C@H](CCCCN)NC(=O)[C@@H](NC(=O)[C@H](CCCCN)NC(=O)[C@@H](NC(=O)[C@H](CC(N)=O)NC(=O)[C@@H](NC(=O)[C@@H](NC(=O)[C@@H](NC(=O)CN)C(C)C)[C@@H](C)CC)[C@@H](C)CC)C(C)C)CSSC[C@@H]2NC(=O)[C@H](CCCCN)NC(=O)CNC(=O)[C@H](Cc3ccccc3)NC(=O)[C@H](CCCNC(=N)N)NC(=O)[C@H](CCSC)NC(=O)CNC(=O)[C@H](CCC(=O)O)NC(=O)[C@H](CCCCN)NC(=O)[C@H](CCCCN)NC(=O)[C@@H]3CSSC[C@@H](C(=O)N[C@H](C(=O)N4CCC[C@H]4C(=O)N[C@@H](CCCCN)C(=O)O)[C@@H](C)O)NC(=O)[C@H](Cc4c[nH]cn4)NC(=O)[C@H](CSSC[C@H](NC(=O)[C@H](CCC(N)=O)NC(=O)[C@H](CCCNC(=N)N)NC(=O)[C@H](CO)NC1=O)C(=O)N[C@@H](CC(C)C)C(=O)N[C@@H](CCC(=O)O)C(=O)N1CCC[C@H]1C(=O)N3)NC(=O)[C@H](CCCCN)NC(=O)CNC(=O)[C@H](CC(N)=O)NC(=O)[C@H](CCSC)NC2=O [A21E] (H-GVIINVKCKISRQCLEPCKKEGMRFGKCMNGKCHCTPK-OH; disulfide 8-28, 14-33, 18-35) | 0.117 nM | 0.138 nM | –
2 | CC[C@H](C)[C@@H]1NC(=O)[C@H](CCCCN)NC(=O)[C@@H](NC(=O)[C@H](CCCCN)NC(=O)[C@@H](NC(=O)[C@H](CC(N)=O)NC(=O)[C@@H](NC(=O)[C@@H](NC(=O)[C@@H](NC(=O)CN)C(C)C)[C@@H](C)CC)[C@@H](C)CC)C(C)C)CSSC[C@@H]2NC(=O)[C@H](CCCCN)NC(=O)CNC(=O)[C@H](Cc3ccccc3)NC(=O)[C@H](CCCNC(=N)N)NC(=O)[C@H](CCSC)NC(=O)CNC(=O)[C@H](CCCNC(=N)N)NC(=O)[C@H](CCCCN)NC(=O)[C@H](CCCCN)NC(=O)[C@@H]3CSSC[C@@H](C(=O)N[C@H](C(=O)N4CCC[C@H]4C(=O)N[C@@H](CCCCN)C(=O)O)[C@@H](C)O)NC(=O)[C@H](Cc4c[nH]cn4)NC(=O)[C@H](CSSC[C@H](NC(=O)[C@H](CCC(N)=O)NC(=O)[C@H](CCCNC(=N)N)NC(=O)[C@H](CO)NC1=O)C(=O)N[C@@H](CC(C)C)C(=O)N[C@@H](CCC(=O)O)C(=O)N1CCC[C@H]1C(=O)N3)NC(=O)[C@H](CCCCN)NC(=O)CNC(=O)[C@H](CC(N)=O)NC(=O)[C@H](CCSC)NC2=O [A21R] (H-GVIINVKCKISRQCLEPCKKRGMRFGKCMNGKCHCTPK-OH; disulfide 8-28, 14-33, 18-35) | 0.09 nM | 0.149 nM | –
3 | CC[C@H](C)[C@@H]1NC(=O)[C@H](CCCCN)NC(=O)[C@@H](NC(=O)[C@H](CCCCN)NC(=O)[C@@H](NC(=O)[C@H](CC(N)=O)NC(=O)[C@@H](NC(=O)[C@@H](NC(=O)[C@@H](NC(=O)CN)C(C)C)[C@@H](C)CC)[C@@H](C)CC)C(C)C)CSSC[C@@H]2NC(=O)[C@H](CCCCN)NC(=O)CNC(=O)[C@H](Cc3ccccc3)NC(=O)[C@H](CCCNC(=N)N)NC(=O)[C@H](CCSC)NC(=O)CNC(=O)[C@H](C)NC(=O)[C@H](CCCCN)NC(=O)[C@H](CCCCN)NC(=O)[C@@H]3CSSC[C@@H](C(=O)N[C@H](C(=O)N4CCC[C@H]4C(=O)N[C@@H](CCCCN)C(=O)O)[C@@H](C)O)NC(=O)[C@H](Cc4c[nH]cn4)NC(=O)[C@H](CSSC[C@H](NC(=O)[C@H](CCC(N)=O)NC(=O)[C@H](CCCNC(=N)N)NC(=O)[C@H](CO)NC1=O)C(=O)N[C@@H](CC(C)C)C(=O)N[C@@H](C)C(=O)N1CCC[C@H]1C(=O)N3)NC(=O)[C@H](CCCCN)NC(=O)CNC(=O)[C@H](CC(N)=O)NC(=O)[C@H](CCSC)NC2=O [E16A] (H-GVIINVKCKISRQCLAPCKKAGMRFGKCMNGKCHCTPK-OH; disulfide 8-28, 14-33, 18-35) | 0.101 nM | 0.101 nM | –
4 | CC[C@H](C)[C@@H]1NC(=O)[C@H](CCCCN)NC(=O)[C@@H](NC(=O)[C@H](CCCCN)NC(=O)[C@@H](NC(=O)[C@H](CC(N)=O)NC(=O)[C@@H](NC(=O)[C@@H](NC(=O)[C@@H](NC(=O)CN)C(C)C)[C@@H](C)CC)[C@@H](C)CC)C(C)C)CSSC[C@@H]2NC(=O)[C@H](CCCCN)NC(=O)CNC(=O)[C@H](Cc3ccccc3)NC(=O)[C@H](CCCNC(=N)N)NC(=O)[C@H](CCSC)NC(=O)CNC(=O)[C@H](C)NC(=O)[C@H](CCCCN)NC(=O)[C@H](CCCCN)NC(=O)[C@@H]3CSSC[C@@H](C(=O)N[C@H](C(=O)N4CCC[C@H]4C(=O)N[C@@H](CCCCN)C(=O)O)[C@@H](C)O)NC(=O)[C@H](Cc4c[nH]cn4)NC(=O)[C@H](CSSC[C@H](NC(=O)[C@H](CCC(N)=O)NC(=O)[C@H](CCCNC(=N)N)NC(=O)[C@H](CO)NC1=O)C(=O)N[C@@H](CC(C)C)C(=O)N[C@@H](Cc1cccc4ccccc14)C(=O)N1CCC[C@H]1C(=O)N3)NC(=O)[C@H](CCCCN)NC(=O)CNC(=O)[C@H](CC(N)=O)NC(=O)[C@H](CCSC)NC2=O [E16Nal] (H-GVIINVKCKISRQCL[1Nal]PCKKAGMRFGKCMNGKCHCTPK-OH; disulfide 8-28, 14-33, 18-35) | 1.02 nM | 1.51 nM | –
5 | CC[C@H](C)[C@@H]1NC(=O)[C@H](CCCCN)NC(=O)[C@@H](NC(=O)[C@H](CCCCN)NC(=O)[C@@H](NC(=O)[C@H](CC(N)=O)NC(=O)[C@@H](NC(=O)[C@@H](NC(=O)[C@@H](NC(=O)CN)C(C)C)[C@@H](C)CC)[C@@H](C)CC)C(C)C)CSSC[C@@H]2NC(=O)[C@H](CCCCN)NC(=O)CNC(=O)[C@H](Cc3ccccc3)NC(=O)[C@H](CCCNC(=N)N)NC(=O)[C@H](CCSC)NC(=O)CNC(=O)[C@H](C)NC(=O)[C@H](CCCCN)NC(=O)[C@H](CCCCN)NC(=O)[C@@H]3CSSC[C@@H](C(=O)N[C@H](C(=O)N4CCC[C@H]4C(=O)N[C@@H](CCCCN)C(=O)O)[C@@H](C)O)NC(=O)[C@H](Cc4c[nH]cn4)NC(=O)[C@H](CSSC[C@H](NC(=O)[C@H](CCC(N)=O)NC(=O)[C@H](CCCNC(=N)N)NC(=O)[C@H](CO)NC1=O)C(=O)N[C@@H](CC(C)C)C(=O)N[C@@H](CCCNC(=N)N)C(=O)N1CCC[C@H]1C(=O)N3)NC(=O)[C@H](CCCCN)NC(=O)CNC(=O)[C@H](CC(N)=O)NC(=O)[C@H](CCSC)NC2=O [E16R] (H-GVIINVKCKISRQCLRPCKKAGMRFGKCMNGKCHCTPK-OH; disulfide 8-28, 14-33, 18-35) | 0.556 nM | 0.454 nM | –
6 | CC[C@H](C)[C@@H]1NC(=O)[C@H](CCCCN)NC(=O)[C@@H](NC(=O)[C@H](CCCCN)NC(=O)[C@@H](NC(=O)[C@H](CC(N)=O)NC(=O)[C@@H](NC(=O)[C@@H](NC(=O)[C@@H](NC(=O)CN)C(C)C)[C@@H](C)CC)[C@@H](C)CC)C(C)C)CSSC[C@@H]2NC(=O)[C@H](CCCCN)NC(=O)CNC(=O)[C@H](C)NC(=O)[C@H](CCCNC(=N)N)NC(=O)[C@H](CCSC)NC(=O)CNC(=O)[C@H](C)NC(=O)[C@H](CCCCN)NC(=O)[C@H](CCCCN)NC(=O)[C@@H]3CSSC[C@@H](C(=O)N[C@H](C(=O)N4CCC[C@H]4C(=O)N[C@@H](CCCCN)C(=O)O)[C@@H](C)O)NC(=O)[C@H](Cc4c[nH]cn4)NC(=O)[C@H](CSSC[C@H](NC(=O)[C@H](CCC(N)=O)NC(=O)[C@H](CCCNC(=N)N)NC(=O)[C@H](CO)NC1=O)C(=O)N[C@@H](CC(C)C)C(=O)N[C@@H](CCC(=O)O)C(=O)N1CCC[C@H]1C(=O)N3)NC(=O)[C@H](CCCCN)NC(=O)CNC(=O)[C@H](CC(N)=O)NC(=O)[C@H](CCSC)NC2=O [F25A] (H-GVIINVKCKISRQCLEPCKKAGMRAGKCMNGKCHCTPK-OH; disulfide 8-28, 14-33, 18-35) | 3.08 nM | 3.08 nM | –
7 | CC[C@H](C)[C@@H]1NC(=O)[C@H](CCCCN)NC(=O)[C@@H](NC(=O)[C@H](CCCCN)NC(=O)[C@@H](NC(=O)[C@H](CC(N)=O)NC(=O)[C@@H](NC(=O)[C@@H](NC(=O)[C@@H](NC(=O)CN)C(C)C)[C@@H](C)CC)[C@@H](C)CC)C(C)C)CSSC[C@@H]2NC(=O)[C@H](CCCCN)NC(=O)CNC(=O)[C@H](Cc3ccccc3)NC(=O)[C@H](CCCNC(=N)N)NC(=O)[C@H](CCSC)NC(=O)CNC(=O)[C@H](C)NC(=O)[C@H](CCCCN)NC(=O)[C@H](CCCCN)NC(=O)[C@@H]3CSSC[C@@H](C(=O)N[C@H](C(=O)N4CCC[C@H]4C(=O)N[C@@H](CCCCN)C(=O)O)[C@@H](C)O)NC(=O)[C@H](Cc4c[nH]cn4)NC(=O)[C@H](CSSC[C@H](NC(=O)[C@H](Cc4cccc5ccccc45)NC(=O)[C@H](CCCNC(=N)N)NC(=O)[C@H](CO)NC1=O)C(=O)N[C@@H](CC(C)C)C(=O)N[C@@H](CCC(=O)O)C(=O)N1CCC[C@H]1C(=O)N3)NC(=O)[C@H](CCCCN)NC(=O)CNC(=O)[C@H](CC(N)=O)NC(=O)[C@H](CCSC)NC2=O [Q13Nal] (H-GVIINVKCKISR[1Nal]CLEPCKKAGMRFGKCMNGKCHCTPK-OH; disulfide 8-28, 14-33, 18-35) | 0.14 nM | – | –
8 | SEQ ID No: 4989: OSK1 analog without beta strand 1 (labeled des 1-7), Table 42 (CKISRQCLKPCKDAGMRFGKCMNGKCHC-NH2; ends and bridges not checked) | – | – | retain activity in blocking inflammation
9 | B1 | – | – | potent blockade
10 | B2 | – | – | potent blockade
